Laboratory results from patent US10710978B2, “STK4 inhibitors for treatment of hematologic malignancies” (Dana-Farber Cancer Institute, Inc., priority 2015, dated 2020).
“And” between values parts separate entries of the source, which are not always exact repeats. Identical values can stand only once. Like-named read-outs stand apart in the source and are kept apart here.

Key:
Assay in all cases: KiNativ assay
Assay type in all cases: binding
[1] = system: ABL, ARG; conditions: H929 live cell
Procedure: (§1) Biochemical IC50s of the compounds of the present disclosure against various kinases were measured in a KiNativ assay. Compounds were screened in duplicate at 10 μM in H929 live cell. IC50 was measured via Mass spectroscopy (MS).

[2] = molecular target: p38a (Homo sapiens (Human), UniProt Q16539); conditions: H929 live cell, read-out: % inhibition (range)
Summary of the method: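 KiNativ profiling in live H929 cells; single concentration 10 μM, n=2; IC50 from MS measurement.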

[3] = molecular target: KHS1 (Homo sapiens (Human), UniProt Q9Y4K4); conditions: H929 live cell
Procedure: as §1

[4] = molecular target: SRPK2 (Homo sapiens (Human), UniProt P78362); conditions: H929 live cell
Procedure: as §1

[5] = system: CaMK2a, CaMK2b, CaMK2d, CaMK2g; conditions: H929 live cell
Procedure: as §1

[6] = molecular target: SRPK1 (Homo sapiens (Human), UniProt Q96SB4); conditions: H929 live cell
Procedure: as §1

[7] = molecular target: NEK3 (Homo sapiens (Human), UniProt P51956); conditions: H929 live cell
Procedure: as §1

[8] = molecular target: MAP3K5 (Homo sapiens (Human), UniProt Q99683); conditions: H929 live cell
Procedure: as §1

[9] = system: KSR1, KSR2; conditions: H929 live cell
Procedure: as §1

[10] = molecular target: CDK7 (Homo sapiens (Human), UniProt P50613); conditions: H929 live cell
Procedure: as §1

[11] = molecular target: MSK2 domain1 (Homo sapiens (Human), UniProt O75676); conditions: H929 live cell
Procedure: as §1

[12] = molecular target: PAN3 (Homo sapiens (Human), UniProt Q58A45); conditions: H929 live cell
Procedure: as §1

[13] = molecular target: JAK1 domain1 (Homo sapiens (Human), UniProt P23458); conditions: H929 live cell
Procedure: as §1

[14] = molecular target: MSK1 domain1 (Homo sapiens (Human), UniProt O75582); conditions: H929 live cell
Procedure: as §1

[15] = molecular target: BARK1 (Homo sapiens (Human), UniProt P25098); conditions: H929 live cell
Procedure: as §1

[16] = molecular target: RSK1 domain2 (Homo sapiens (Human), UniProt Q15418); conditions: H929 live cell
Procedure: as §1

[17] = molecular target: CaMK1d (Homo sapiens (Human), UniProt Q8IU85); conditions: H929 live cell
Procedure: as §1

[18] = molecular target: NuaK1 (Homo sapiens (Human), UniProt O60285); conditions: H929 live cell
Procedure: as §1

[19] = molecular target: MAP3K4 (Homo sapiens (Human), UniProt Q9Y6R4); conditions: H929 live cell
Procedure: as §1

[20] = system: MARK2, MARK3; conditions: H929 live cell
Procedure: as §1

[21] = molecular target: PIK3C3 (Homo sapiens (Human), UniProt Q8NEB9); conditions: H929 live cell
Procedure: as §1

[22] = molecular target: PRP4 (Homo sapiens (Human), UniProt Q13523); conditions: H929 live cell
Procedure: as §1

[23] = system: FYN, SRC, YES; conditions: H929 live cell
Procedure: as §1

[24] = molecular target: p70S6Kb (Homo sapiens (Human), UniProt Q9UBS0); conditions: H929 live cell
Procedure: as §1

[25] = molecular target: AKT1 (Homo sapiens (Human), UniProt P31749); conditions: H929 live cell
Procedure: as §1

[26] = molecular target: CSK (Homo sapiens (Human), UniProt P41240); conditions: H929 live cell
Procedure: as §1

[27] = molecular target: MAP2K6 (Homo sapiens (Human), UniProt P52564); conditions: H929 live cell
Procedure: as §1

[28] = molecular target: GCK (Homo sapiens (Human), UniProt Q12851); conditions: H929 live cell
Procedure: as §1

[29] = molecular target: PKCi (Homo sapiens (Human), UniProt P41743); conditions: H929 live cell
Procedure: as §1

[30] = molecular target: IRAK1 (Homo sapiens (Human), UniProt P51617); conditions: H929 live cell
Procedure: as §1

[31] = molecular target: MAP3K1 (Homo sapiens (Human), UniProt Q13233); conditions: H929 live cell
Procedure: as §1

[32] = molecular target: TAO2 (Homo sapiens (Human), UniProt Q9UL54); conditions: H929 live cell
Procedure: as §1

[33] = molecular target: PIK3CG (Homo sapiens (Human), UniProt P48736); conditions: H929 live cell
Procedure: as §1

Chain of NuaK1 (O60285 whole entry): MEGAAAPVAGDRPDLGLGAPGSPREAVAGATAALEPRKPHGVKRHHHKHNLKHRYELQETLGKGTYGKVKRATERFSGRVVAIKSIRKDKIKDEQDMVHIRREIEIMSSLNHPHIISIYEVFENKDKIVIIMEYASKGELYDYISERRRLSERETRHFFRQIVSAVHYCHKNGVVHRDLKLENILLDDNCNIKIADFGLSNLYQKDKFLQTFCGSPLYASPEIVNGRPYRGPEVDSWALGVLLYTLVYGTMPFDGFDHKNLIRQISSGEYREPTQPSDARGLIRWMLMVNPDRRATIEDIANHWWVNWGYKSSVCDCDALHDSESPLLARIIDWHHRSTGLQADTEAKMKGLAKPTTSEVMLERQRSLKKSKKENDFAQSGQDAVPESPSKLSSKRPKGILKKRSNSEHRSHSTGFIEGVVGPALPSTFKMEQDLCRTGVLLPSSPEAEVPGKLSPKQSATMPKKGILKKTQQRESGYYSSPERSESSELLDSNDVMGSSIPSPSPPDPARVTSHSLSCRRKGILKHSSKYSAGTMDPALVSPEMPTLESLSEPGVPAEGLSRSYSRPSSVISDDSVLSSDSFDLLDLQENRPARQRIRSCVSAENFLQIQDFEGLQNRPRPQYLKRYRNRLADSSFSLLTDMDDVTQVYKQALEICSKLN
Chain of MSK1 domain1 (O75582 whole entry, the tested form may be a part): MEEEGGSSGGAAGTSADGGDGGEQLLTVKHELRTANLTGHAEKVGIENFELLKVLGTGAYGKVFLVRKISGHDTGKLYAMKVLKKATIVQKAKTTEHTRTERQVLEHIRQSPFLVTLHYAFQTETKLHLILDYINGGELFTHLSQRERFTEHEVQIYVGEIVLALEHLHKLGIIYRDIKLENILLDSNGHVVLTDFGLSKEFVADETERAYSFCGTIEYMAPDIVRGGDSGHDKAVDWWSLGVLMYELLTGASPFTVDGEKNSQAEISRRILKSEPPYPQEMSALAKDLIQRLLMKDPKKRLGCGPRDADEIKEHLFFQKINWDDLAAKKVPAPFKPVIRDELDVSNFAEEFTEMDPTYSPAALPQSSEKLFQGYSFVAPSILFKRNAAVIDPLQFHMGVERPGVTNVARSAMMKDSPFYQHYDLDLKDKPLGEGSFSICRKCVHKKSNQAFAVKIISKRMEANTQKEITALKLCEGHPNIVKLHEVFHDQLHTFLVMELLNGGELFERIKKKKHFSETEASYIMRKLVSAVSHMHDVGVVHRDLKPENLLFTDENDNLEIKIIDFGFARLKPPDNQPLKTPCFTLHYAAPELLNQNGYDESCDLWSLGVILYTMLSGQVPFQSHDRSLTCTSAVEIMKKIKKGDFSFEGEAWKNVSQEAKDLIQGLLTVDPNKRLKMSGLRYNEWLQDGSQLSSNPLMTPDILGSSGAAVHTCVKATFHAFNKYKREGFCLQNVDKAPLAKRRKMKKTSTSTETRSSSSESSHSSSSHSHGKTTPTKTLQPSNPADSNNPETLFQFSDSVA
Chain of PAN3 (Q58A45 whole entry): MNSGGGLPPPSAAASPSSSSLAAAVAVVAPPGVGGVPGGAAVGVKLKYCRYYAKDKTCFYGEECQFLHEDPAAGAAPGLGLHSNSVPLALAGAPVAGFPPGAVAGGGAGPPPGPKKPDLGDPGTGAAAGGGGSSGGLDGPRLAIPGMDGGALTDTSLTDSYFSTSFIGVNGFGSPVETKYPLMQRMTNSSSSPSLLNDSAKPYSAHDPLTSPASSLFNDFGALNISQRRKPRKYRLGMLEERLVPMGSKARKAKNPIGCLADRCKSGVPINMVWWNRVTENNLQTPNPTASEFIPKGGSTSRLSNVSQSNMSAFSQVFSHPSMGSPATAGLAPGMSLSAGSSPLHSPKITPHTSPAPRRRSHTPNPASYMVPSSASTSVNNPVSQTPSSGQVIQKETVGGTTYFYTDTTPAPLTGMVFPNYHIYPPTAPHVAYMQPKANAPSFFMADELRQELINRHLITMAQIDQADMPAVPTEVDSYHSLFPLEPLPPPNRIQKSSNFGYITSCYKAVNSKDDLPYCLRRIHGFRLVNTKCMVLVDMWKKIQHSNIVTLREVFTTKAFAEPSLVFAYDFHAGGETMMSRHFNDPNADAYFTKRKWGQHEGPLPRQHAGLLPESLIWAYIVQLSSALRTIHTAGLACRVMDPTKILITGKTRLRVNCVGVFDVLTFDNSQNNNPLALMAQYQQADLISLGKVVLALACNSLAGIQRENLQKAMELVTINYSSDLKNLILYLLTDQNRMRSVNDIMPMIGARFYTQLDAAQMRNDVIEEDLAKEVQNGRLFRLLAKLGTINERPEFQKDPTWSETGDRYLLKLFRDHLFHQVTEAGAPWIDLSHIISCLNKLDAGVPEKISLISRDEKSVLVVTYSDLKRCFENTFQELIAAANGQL
Chain of MAP3K4 (Q9Y6R4 whole entry): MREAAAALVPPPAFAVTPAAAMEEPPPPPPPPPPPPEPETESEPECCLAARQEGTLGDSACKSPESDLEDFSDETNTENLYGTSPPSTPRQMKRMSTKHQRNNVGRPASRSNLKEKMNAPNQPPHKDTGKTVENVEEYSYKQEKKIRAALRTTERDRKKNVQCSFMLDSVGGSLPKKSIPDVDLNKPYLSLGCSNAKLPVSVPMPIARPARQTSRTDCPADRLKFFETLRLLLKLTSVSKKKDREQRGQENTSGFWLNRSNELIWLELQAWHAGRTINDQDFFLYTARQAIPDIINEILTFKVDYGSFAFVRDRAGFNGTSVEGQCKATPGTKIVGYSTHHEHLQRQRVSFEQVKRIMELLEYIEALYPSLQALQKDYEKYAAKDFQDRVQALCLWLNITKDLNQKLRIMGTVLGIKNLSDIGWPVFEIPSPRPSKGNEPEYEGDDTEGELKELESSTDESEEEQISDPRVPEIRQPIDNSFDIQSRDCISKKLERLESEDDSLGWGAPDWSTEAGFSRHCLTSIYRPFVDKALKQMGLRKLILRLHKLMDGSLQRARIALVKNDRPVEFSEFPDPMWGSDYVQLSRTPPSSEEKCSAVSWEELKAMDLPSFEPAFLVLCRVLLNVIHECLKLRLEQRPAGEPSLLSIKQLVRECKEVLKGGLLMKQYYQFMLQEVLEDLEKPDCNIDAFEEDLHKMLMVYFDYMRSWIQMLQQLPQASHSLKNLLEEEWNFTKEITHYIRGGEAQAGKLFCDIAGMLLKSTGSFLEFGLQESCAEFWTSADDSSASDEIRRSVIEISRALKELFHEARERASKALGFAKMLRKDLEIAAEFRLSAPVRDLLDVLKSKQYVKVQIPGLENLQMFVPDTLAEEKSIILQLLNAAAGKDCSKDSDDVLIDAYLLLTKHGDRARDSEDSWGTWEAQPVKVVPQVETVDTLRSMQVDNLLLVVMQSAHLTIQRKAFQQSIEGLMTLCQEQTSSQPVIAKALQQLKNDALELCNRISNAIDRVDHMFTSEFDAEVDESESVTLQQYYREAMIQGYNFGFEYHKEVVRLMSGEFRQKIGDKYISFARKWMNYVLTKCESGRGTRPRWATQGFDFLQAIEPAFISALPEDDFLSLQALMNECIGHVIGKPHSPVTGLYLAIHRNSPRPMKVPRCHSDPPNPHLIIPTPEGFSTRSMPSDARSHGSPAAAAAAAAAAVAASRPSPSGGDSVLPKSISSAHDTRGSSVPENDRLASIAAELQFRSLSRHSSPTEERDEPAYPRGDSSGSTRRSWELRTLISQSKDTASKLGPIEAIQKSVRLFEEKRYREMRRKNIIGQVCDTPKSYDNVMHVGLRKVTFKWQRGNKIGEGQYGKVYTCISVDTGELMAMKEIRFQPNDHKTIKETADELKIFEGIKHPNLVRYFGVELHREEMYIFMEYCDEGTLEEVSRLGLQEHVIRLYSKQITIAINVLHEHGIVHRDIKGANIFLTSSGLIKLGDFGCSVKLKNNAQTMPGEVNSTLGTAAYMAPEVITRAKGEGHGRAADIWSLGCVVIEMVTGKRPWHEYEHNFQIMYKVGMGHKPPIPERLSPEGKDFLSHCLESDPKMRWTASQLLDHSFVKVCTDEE
Chain of CSK (P41240 whole entry): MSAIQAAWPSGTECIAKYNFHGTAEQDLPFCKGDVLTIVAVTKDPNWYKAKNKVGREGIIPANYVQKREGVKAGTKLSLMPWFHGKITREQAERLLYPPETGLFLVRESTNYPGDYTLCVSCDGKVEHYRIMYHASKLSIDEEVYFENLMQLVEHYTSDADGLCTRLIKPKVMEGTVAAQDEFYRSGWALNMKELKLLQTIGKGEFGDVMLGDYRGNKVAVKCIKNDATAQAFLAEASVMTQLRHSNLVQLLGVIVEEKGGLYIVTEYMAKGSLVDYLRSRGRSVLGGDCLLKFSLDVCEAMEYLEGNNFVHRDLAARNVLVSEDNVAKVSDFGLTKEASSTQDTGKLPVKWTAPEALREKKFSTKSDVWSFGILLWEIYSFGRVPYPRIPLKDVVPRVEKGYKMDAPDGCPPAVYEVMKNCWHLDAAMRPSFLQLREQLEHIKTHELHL
Chain of BARK1 (P25098 whole entry): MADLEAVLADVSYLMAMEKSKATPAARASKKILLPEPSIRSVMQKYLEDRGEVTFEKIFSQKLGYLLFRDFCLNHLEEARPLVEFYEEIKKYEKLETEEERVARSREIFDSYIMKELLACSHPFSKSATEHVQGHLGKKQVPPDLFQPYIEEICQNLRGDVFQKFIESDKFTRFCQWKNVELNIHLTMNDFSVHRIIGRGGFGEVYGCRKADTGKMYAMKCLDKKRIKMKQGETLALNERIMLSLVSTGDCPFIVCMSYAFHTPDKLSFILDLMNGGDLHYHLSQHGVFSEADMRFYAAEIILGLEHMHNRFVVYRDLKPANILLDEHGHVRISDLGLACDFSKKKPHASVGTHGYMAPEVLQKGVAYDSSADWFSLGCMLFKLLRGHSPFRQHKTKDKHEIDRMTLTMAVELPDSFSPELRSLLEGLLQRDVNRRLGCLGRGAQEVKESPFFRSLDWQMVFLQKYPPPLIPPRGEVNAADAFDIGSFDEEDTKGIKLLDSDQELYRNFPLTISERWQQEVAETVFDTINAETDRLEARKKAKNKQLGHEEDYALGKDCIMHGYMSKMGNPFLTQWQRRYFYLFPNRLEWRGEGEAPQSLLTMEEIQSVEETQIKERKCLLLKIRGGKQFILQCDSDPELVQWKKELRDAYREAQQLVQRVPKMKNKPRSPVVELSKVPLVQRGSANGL

SMILES: Nc1ncc(-c2cccc3ncsc23)cc1-c1ccc2c(c1)CCNC2=O [Compound I-13, 6-(2-amino-5-(benzo[d]thiazol-7-yl)pyridin-3-yl)-3,4-dihydroisoquinolin-1(2H)-one]
- % inhibition (range) ([1]; 10 μM): 50-75%
- inhibition (10 μM) [1]: 53.5%
- inhibition at 10 µM [2]: 0%
- inhibition at 10 µM ([3]; read-out: % inhibition (range)): 35 to 50%
- inhibition at 10 µM ([3]; read-out: inhibition (10 μM)): 47.7%
- inhibition at 10 µM ([4]; read-out: % inhibition (range)): 0%
- inhibition at 10 µM ([4]; read-out: inhibition (10 μM)): -14%
- % inhibition (range) ([5]; 10 μM): 0.0%
- inhibition (10 μM) [5]: −4.1%
- inhibition at 10 µM ([6]; read-out: % inhibition (range)): 0%
- inhibition at 10 µM ([6]; read-out: inhibition (10 μM)): 10.8%
- inhibition at 10 µM ([7]; read-out: % inhibition (range)): 0%
- inhibition at 10 µM ([7]; read-out: inhibition (10 μM)): 5.3%
- inhibition at 10 µM ([8]; read-out: % inhibition (range)): 0%
- inhibition at 10 µM ([8]; read-out: inhibition (10 μM)): 25.6%
- % inhibition (range) ([9]; 10 μM): 0.0%
- inhibition (10 μM) [9]: −6.2%
- inhibition at 10 µM ([10]; read-out: % inhibition (range)): 0%
- inhibition at 10 µM ([10]; read-out: inhibition (10 μM)): 32.9%
- inhibition at 10 µM ([11]; read-out: % inhibition (range)): 0%
- inhibition at 10 µM ([11]; read-out: inhibition (10 μM)): -6.1%
- inhibition at 10 µM ([12]; read-out: % inhibition (range)): 0%
- inhibition at 10 µM ([12]; read-out: inhibition (10 μM)): -4%
- inhibition at 10 µM ([13]; read-out: % inhibition (range)): 0%
- inhibition at 10 µM ([13]; read-out: inhibition (10 μM)): -22.4%
- inhibition at 10 µM ([14]; read-out: % inhibition (range)): 0%
- inhibition at 10 µM ([14]; read-out: inhibition (10 μM)): 9.5%
- inhibition at 10 µM ([15]; read-out: % inhibition (range)): 0%
- inhibition at 10 µM ([15]; read-out: inhibition (10 μM)): 21.8%
- inhibition at 10 µM ([16]; read-out: % inhibition (range)): 0%
- inhibition at 10 µM ([16]; read-out: inhibition (10 μM)): -7.7%
- inhibition at 10 µM ([17]; read-out: % inhibition (range)): 0%
- inhibition at 10 µM ([17]; read-out: inhibition (10 μM)): 16.2%
- % inhibition (range) ([18]; 10 μM): 50-75% and 75-90%
- inhibition (10 μM) [18]: 83.7%
- inhibition at 10 µM ([18]; read-out: inhibition (10 μM)): 71.7%
- inhibition at 10 µM ([19]; read-out: % inhibition (range)): 0%
- inhibition at 10 µM ([19]; read-out: inhibition (10 μM)): 3%
- % inhibition (range) ([20]; 10 μM): 0.0%
- inhibition (10 μM) [20]: 14.8%
- inhibition at 10 µM ([21]; read-out: % inhibition (range)): 0%
- inhibition at 10 µM ([21]; read-out: inhibition (10 μM)): 24.8%
- inhibition at 10 µM ([22]; read-out: % inhibition (range)): 50 to 75%
- inhibition at 10 µM ([22]; read-out: inhibition (10 μM)): 73.4%
- % inhibition (range) ([23]; 10 μM): 0.0%
- inhibition (10 μM) [23]: 0.3%
- inhibition at 10 µM ([24]; read-out: % inhibition (range)): 0%
- inhibition at 10 µM ([24]; read-out: inhibition (10 μM)): -17.4%
- inhibition at 10 µM ([25]; read-out: % inhibition (range)): 0%
- inhibition at 10 µM ([25]; read-out: inhibition (10 μM)): 26.4%
- inhibition at 10 µM ([26]; read-out: % inhibition (range)): 0%
- inhibition at 10 µM ([26]; read-out: inhibition (10 μM)): 4.7%
- inhibition at 10 µM ([27]; read-out: % inhibition (range)): 0%
- inhibition at 10 µM ([27]; read-out: inhibition (10 μM)): 4.3%
- inhibition at 10 µM ([28]; read-out: % inhibition (range)): 75 to 90%
- inhibition at 10 µM ([28]; read-out: inhibition (10 μM)): 77.3%
- inhibition at 10 µM ([29]; read-out: % inhibition (range)): 0%
- inhibition at 10 µM ([29]; read-out: inhibition (10 μM)): 21.4%
- inhibition at 10 µM ([30]; read-out: % inhibition (range)): 0%
- inhibition at 10 µM ([30]; read-out: inhibition (10 μM)): 28.5%
- inhibition at 10 µM ([31]; read-out: % inhibition (range)): > 90%
- inhibition at 10 µM ([31]; read-out: inhibition (10 μM)): 90.2%
- inhibition at 10 µM ([32]; read-out: % inhibition (range)): 0%
- inhibition at 10 µM ([32]; read-out: inhibition (10 μM)): -19.7%
- inhibition at 10 µM ([33]; read-out: % inhibition (range)): 0%
- inhibition at 10 µM ([33]; read-out: inhibition (10 μM)): 12.4%
